Legend:
MAGL [1] = target: T1, MAGL (Mus musculus, UniProt O35678); experiment: In vitro competitive activity-based protein profiling (mouse), MAGL gel band; type: biochemical; conditions: for inhibition at 1 µM: read-out: MAGL % inh. 1 μM; for IC50: mouse
T1 construct: Proteomes (mouse brain membrane fraction or cell lysates); from tissue; host or cells: mouse brain membrane fraction (or cell lysates)
T1 sequence (O35678 1-303): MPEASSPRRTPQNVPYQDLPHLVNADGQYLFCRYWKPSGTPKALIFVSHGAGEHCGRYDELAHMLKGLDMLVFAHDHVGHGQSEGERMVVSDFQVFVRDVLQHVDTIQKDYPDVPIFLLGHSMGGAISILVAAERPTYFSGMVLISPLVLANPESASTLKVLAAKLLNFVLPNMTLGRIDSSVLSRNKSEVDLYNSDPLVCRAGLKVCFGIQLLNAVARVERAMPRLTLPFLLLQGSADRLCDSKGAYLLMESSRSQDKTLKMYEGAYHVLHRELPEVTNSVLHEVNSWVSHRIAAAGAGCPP
Outline: (§1)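 Mouse brain membrane proteome or cell lysate (1.0 mg/mL total protein) was preincubated with varying inhibitor concentrations for 30 min at 37 °C, then labelled for 30 min at 37 °C with FP-Rh or HT-01 (50 μM stock in DMSO). Activity was read as fluorescent band intensity after SDS-PAGE.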

FAAH = target: T2, FAAH (Mus musculus, UniProt O08914); experiment: In vitro competitive activity-based protein profiling (mouse), FAAH gel band; type: biochemical; conditions: for inhibition at 1 µM: read-out: FAAH % inh. 1 μM; for IC50: mouse
T2 construct: Proteomes (mouse brain membrane fraction or cell lysates); from tissue; host or cells: mouse brain membrane fraction (or cell lysates)
T2 sequence (O08914 1-579): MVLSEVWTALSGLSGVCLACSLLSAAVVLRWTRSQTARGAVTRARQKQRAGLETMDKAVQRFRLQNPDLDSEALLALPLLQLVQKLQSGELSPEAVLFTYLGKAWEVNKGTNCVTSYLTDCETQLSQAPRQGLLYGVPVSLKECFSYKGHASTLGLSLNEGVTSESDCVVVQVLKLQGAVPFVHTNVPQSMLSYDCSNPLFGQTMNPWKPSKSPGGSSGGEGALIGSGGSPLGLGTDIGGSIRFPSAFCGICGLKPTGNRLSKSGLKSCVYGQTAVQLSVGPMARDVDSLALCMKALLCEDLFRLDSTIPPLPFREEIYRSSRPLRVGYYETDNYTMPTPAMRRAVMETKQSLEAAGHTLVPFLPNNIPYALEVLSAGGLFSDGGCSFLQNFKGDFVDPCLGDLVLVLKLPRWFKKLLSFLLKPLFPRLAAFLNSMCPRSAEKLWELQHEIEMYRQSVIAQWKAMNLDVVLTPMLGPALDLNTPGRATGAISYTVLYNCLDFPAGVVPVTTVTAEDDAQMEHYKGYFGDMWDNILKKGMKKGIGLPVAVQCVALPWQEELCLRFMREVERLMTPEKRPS
Outline: as §1

MAGL [2] = target: T3, MAGL (Homo sapiens, UniProt Q99685); experiment: In vitro competitive activity-based protein profiling (human), MAGL gel band; type: biochemical
T3 construct: Proteomes (human prefrontal cortex or cell membrane fractions); from tissue; host or cells: human prefrontal cortex (or cell membrane fractions)
T3 sequence (Q99685 1-303): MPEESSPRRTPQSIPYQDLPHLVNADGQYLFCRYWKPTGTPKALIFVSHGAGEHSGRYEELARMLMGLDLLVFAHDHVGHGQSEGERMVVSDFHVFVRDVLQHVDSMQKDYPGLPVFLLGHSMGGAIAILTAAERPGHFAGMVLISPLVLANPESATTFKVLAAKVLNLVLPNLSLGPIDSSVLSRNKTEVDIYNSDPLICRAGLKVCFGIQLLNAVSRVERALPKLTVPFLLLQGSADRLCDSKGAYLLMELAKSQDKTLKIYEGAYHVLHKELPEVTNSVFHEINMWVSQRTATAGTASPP
Protocol: In Vitro Competitive Activity-Based Protein Profiling (Human).
Proteomes (human prefrontal cortex or cell membrane fractions) (50 μL, 1.0-2.0 mg/mL total protein concentration) were preincubated with varying concentrations of inhibitors at 37° C. After 30 min, FP-Rh or JW912 (1.0 μL, 50 μM in DMSO) was added and the mixture was incubated for another 30 min at room temperature. Reactions were quenched with SDS loading buffer (15 μL—4×) and run on SDS-PAGE. Following gel imaging, serine hydrolase activity was determined by measuring fluorescent intensity of gel bands corresponding to MAGL using ImageJ 1.49k software.

MAGL [3] = target: T1, MAGL; experiment: Mouse brain proteomes from inhibitor treated mice (oral gavage, sacrificed 4 h after administration); type: in vivo; conditions: read-out: MAGL % inh. 5 mg/kg
Outline: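 Wild-type C57Bl/6J mice got compound by oral gavage in polyethylene glycol vehicle. Brain proteomes were prepared 4 h after dosing and analyzed for serine hydrolase activity.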

CC(=O)Nc1ccn(C(=O)N2CCN(Cc3ccc(C(F)(F)F)cc3C3CCN(CC(=O)O)CC3)CC2)n1 [Example 285, 2-(4-(2-((4-(3-acetamido-1H-pyrazole-1-carbonyl)piperazin-1-yl)methyl)-5-(trifluoromethyl)phenyl)piperidin-1-yl)acetic acid]
inhibition at 1 µM (MAGL [1]): ≥ 75%
inhibition at 1 µM (FAAH): 0 to 25%
IC50 (MAGL [2]): ≤ 100 nM

CS(=O)(=O)Nc1ccn(C(=O)N2CCN(Cc3ccc(C(F)(F)F)c(N4CCC(F)CC4)c3)CC2)n1 [Example 271, N-(1-(4-(3-(4-fluoropiperidin-1-yl)-4-(trifluoromethyl)benzyl)piperazine-1-carbonyl)-1H-pyrazol-3-yl) methanesulfonamide]
inhibition at 1 µM (MAGL [1]): ≥ 75%
inhibition at 1 µM (FAAH): 0 to 25%
IC50 (MAGL [2]): ≤ 100 nM

CS(=O)(=O)Nc1ccn(C(=O)N2CCN(Cc3ccc(C(F)(F)F)cc3N3CCN(C(=O)N4CCC4)CC3)CC2)n1 [Example 187, N-(1-(4-(2-(4-(azetidine-1-carbonyl)piperazin-1-yl)-4-(trifluoromethyl)benzyl)piperazine-1-carbonyl)-1H-pyrazol-3-yl) methanesulfonamide]
inhibition at 1 µM (MAGL [1]): ≥ 75%
inhibition at 1 µM (FAAH): 0 to 25%
IC50 (MAGL [2]): 100 to 1000 nM

CS(=O)(=O)Nc1ccn(C(=O)N2CCN(Cc3ccc(Cl)c(N4CCCCC4)c3)CC2)n1 [Example 236, N-(1-(4-(4-chloro-3-(piperidin-1-yl)benzyl)piperazine-1-carbonyl)-1H-pyrazol-3-yl) methanesulfonamide]
inhibition at 1 µM (MAGL [1]): ≥ 75%
inhibition at 1 µM (FAAH): 0 to 25%
IC50 (MAGL [2]): ≤ 100 nM

CS(=O)(=O)Nc1ccn(C(=O)N2CCN(Cc3ccc(C(F)(F)F)cc3-c3ncon3)CC2)n1 [Example 112, N-(1-(4-(2-(1,2,4-oxadiazol-3-yl)-4-(trifluoromethyl)benzyl)piperazine-1-carbonyl)-1H-pyrazol-3-yl)methanesulfonamide]
inhibition at 1 µM (MAGL [1]): ≥ 75%
inhibition at 1 µM (FAAH): 0 to 25%
IC50 (MAGL [2]): ≤ 100 nM

CS(=O)(=O)Nc1ccn(C(=O)N2CCN(Cc3cccc(-c4cccnc4)c3)CC2)n1 [Example 120, N-(1-(4-(3-(pyridin-3-yl)benzyl)piperazine-1-carbonyl)-1H-pyrazol-3-yl) methanesulfonamide]
IC50 (MAGL [1]): 100 to 1000 nM
inhibition at 1 µM (MAGL [1]): ≥ 75%
IC50 (FAAH): 1000 to 10000 nM
inhibition at 1 µM (FAAH): 0 to 25%
IC50 (MAGL [2]): ≤ 100 nM

CS(=O)(=O)Nc1ccn(C(=O)N2CCN(Cc3ccc(C(F)(F)F)cc3N3CCC(F)CC3)CC2)n1 [Example 196, N-(1-(4-(2-(4-fluoropiperidin-1-yl)-4-(trifluoromethyl)benzyl)piperazine-1-carbonyl)-1H-pyrazol-3-yl) methanesulfonamide]
inhibition at 1 µM (MAGL [1]): ≥ 75%
inhibition at 1 µM (FAAH): 0 to 25%
IC50 (MAGL [2]): ≤ 100 nM

CS(=O)(=O)Nc1ccn(C(=O)N2CCC3(CCCN3Cc3cc(Cl)cc(C(F)(F)F)c3)CC2)n1 [Example 198, N-(1-(1-(3-chloro-5-(trifluoromethyl)benzyl)-1,8-diazaspiro[4.5]decane-8-carbonyl)-1H-pyrazol-3-yl) methanesulfonamide]
inhibition at 1 µM (MAGL [1]): ≥ 75%
inhibition at 1 µM (FAAH): 25 to 50%
IC50 (MAGL [2]): ≤ 100 nM

CS(=O)(=O)Nc1ccn(C(=O)N2CCC3(CCCN3Cc3ccc(C(F)(F)F)cc3N3CCC(F)CC3)CC2)n1 [Example 178, N-(1-(1-(2-(4-fluoropiperidin-1-yl)-4-(trifluoromethyl)benzyl)-1,8-diazaspiro[4.5]decane-8-carbonyl)-1H-pyrazol-3-yl) methanesulfonamide]
inhibition at 1 µM (MAGL [1]): ≥ 75%
inhibition at 1 µM (FAAH): 0 to 25%
IC50 (MAGL [2]): ≤ 100 nM

CS(=O)(=O)Nc1ccn(C(=O)N2CCN(Cc3ccc(C(F)(F)F)c(N4CCC(C(N)=O)CC4)c3)CC2)n1 [Example 291, 1-(5-((4-(3-(methylsulfonamido)-1H-pyrazole-1-carbonyl)piperazin-1-yl)methyl)-2-(trifluoromethyl)phenyl)piperidine-4-carboxamide]
inhibition at 1 µM (MAGL [1]): 0 to 25%
inhibition at 1 µM (FAAH): 0 to 25%
inhibition at 1 µM (MAGL [2]; at 1 μM, read-out: MAGL human % inh at 1 μM): 25%

CS(=O)(=O)Nc1ccn(C(=O)N2CCN(Cc3ccc(C(F)(F)F)cc3N3CCN(C(=O)CO)CC3)CC2)n1 [Example 116, N-(1-(4-(2-(4-(2-hydroxyacetyl)piperazin-1-yl)-4-(trifluoromethyl)benzyl)piperazine-1-carbonyl)-1H-pyrazol-3-yl)methanesulfonamide]
inhibition at 1 µM (MAGL [1]): ≥ 75%
inhibition at 1 µM (FAAH): 0 to 25%
IC50 (MAGL [2]): ≤ 100 nM

CS(=O)(=O)Nc1ccn(C(=O)N2CCN(Cc3ccc(C(F)(F)F)cc3-c3ccn(CC(=O)O)n3)CC2)n1 [Example 213, 2-(3-(2-((4-(3-(methylsulfonamido)-1H-pyrazole-1-carbonyl)piperazin-1-yl)methyl)-5-(trifluoromethyl)phenyl)-1H-pyrazol-1-yl)acetic acid]
inhibition at 1 µM (MAGL [1]): ≥ 75%
inhibition at 1 µM (FAAH): 0 to 25%
IC50 (MAGL [2]): 100 to 1000 nM

CC(=O)Nc1ccn(C(=O)N2CCC3(CCCN3Cc3ccc(C(F)(F)F)c(N4CCOCC4)c3)CC2)n1 [Example 105, N-(1-(1-(3-morpholino-4-(trifluoromethyl)benzyl)-1,8-diazaspiro[4.5]decane-8-carbonyl)-1H-pyrazol-3-yl)acetamide]
IC50 (MAGL [1]): ≤ 100 nM
inhibition at 1 µM (MAGL [1]): ≥ 75%
IC50 (FAAH): 1000 to 10000 nM
inhibition at 1 µM (FAAH): 0 to 25%
inhibition at 5 mg/kg (MAGL [3]): 25 to 50%

CC(=O)Nc1ccn(C(=O)N2CCC3(CCCN3Cc3ccc(C(F)(F)F)cc3N3CCC4(CC3)CCN(S(C)(=O)=O)C4)CC2)n1 [Example 26, N-(1-(1-(2-(2-(methylsulfonyl)-2,8-diazaspiro[4.5]decan-8-yl)-4-(trifluoromethyl)benzyl)-1,8-diazaspiro[4.5]decane-8-carbonyl)-1H-pyrazol-3-yl)acetamide]
IC50 (MAGL [1]): ≤ 100 nM
inhibition at 1 µM (MAGL [1]): ≥ 75%
IC50 (FAAH): 1000 to 10000 nM
inhibition at 1 µM (FAAH): 0 to 25%
inhibition at 5 mg/kg (MAGL [3]): 0 to 25%

CC(=O)Nc1ccn(C(=O)N2CCN(Cc3ccc(C(F)(F)F)cc3OCC(=O)N3CCCC3)CC2)n1 [Example 79, N-(1-(4-(2-(2-oxo-2-(pyrrolidin-1-yl)ethoxy)-4-(trifluoromethyl)benzyl)piperazine-1-carbonyl)-1H-pyrazol-3-yl)acetamide]
IC50 (MAGL [1]): ≤ 100 nM
inhibition at 1 µM (MAGL [1]): ≥ 75%
IC50 (FAAH): 1000 to 10000 nM
inhibition at 1 µM (FAAH): 0 to 25%
inhibition at 5 mg/kg (MAGL [3]): 0 to 25%

CC(=O)Nc1ccn(C(=O)N2CCN(Cc3ccc(Cl)cc3N3CCC4(CC3)CCN(S(C)(=O)=O)C4)CC2)n1 [Example 54, N-(1-(4-(4-chloro-2-(2-(methylsulfonyl)-2,8-diazaspiro[4.5]decan-8-yl)benzyl)piperazine-1-carbonyl)-1H-pyrazol-3-yl)acetamide]
IC50 (MAGL [1]): ≤ 100 nM
inhibition at 1 µM (MAGL [1]): ≥ 75%
IC50 (FAAH): 1000 to 10000 nM
inhibition at 1 µM (FAAH): 0 to 25%
inhibition at 5 mg/kg (MAGL [3]): 0 to 25%

CC(=O)Nc1ccn(C(=O)N2CCN(Cc3ccc(C(F)(F)F)cc3N3CCOCC3)CC2)n1 [Example 3, N-(1-(4-(2-morpholino-4-(trifluoromethyl)benzyl)piperazine-1-carbonyl)-1H-pyrazol-3-yl)acetamide]
IC50 (MAGL [1]): ≤ 100 nM
inhibition at 1 µM (MAGL [1]): ≥ 75%
IC50 (FAAH): 1000 to 10000 nM
inhibition at 1 µM (FAAH): 0 to 25%
inhibition at 5 mg/kg (MAGL [3]): 50 to 75%
